According to ChEMBL document CHEMBL3286326, “Chiral Resolution and Serendipitous Fluorination Reaction for the Selective Dopamine D3 Receptor Antagonist BAK2-66” (ACS Med Chem Lett, 2014):

Columns and labels:
D(3) dopamine receptor = D(3) dopamine receptor (Homo sapiens, UniProt P35462); experiment: biochemical
Description: Displacement of [3H]N-methylspiperone from human dopamine D3 receptor expressed in human HEK293 cell membrane for 1 hr by liquid scintillation counting analysis

D(2) dopamine receptor = D(2) dopamine receptor (Homo sapiens, UniProt P14416); experiment: Displacement of [3H]N-methylspiperone from human dopamine D2 receptor expressed in human HEK293 cell membrane for 1 hr by liquid scintillation counting analysis; assay type: cell membranes
D(4) dopamine receptor = molecular target: T1, D(4) dopamine receptor (Homo sapiens, UniProt P21917); experiment: Displacement of [3H]N-methylspiperone from human dopamine D4 receptor expressed in human HEK293 cell membrane for 1 hr by liquid scintillation counting analysis; assay type: cell membranes
T1 sequence (P21917 whole entry): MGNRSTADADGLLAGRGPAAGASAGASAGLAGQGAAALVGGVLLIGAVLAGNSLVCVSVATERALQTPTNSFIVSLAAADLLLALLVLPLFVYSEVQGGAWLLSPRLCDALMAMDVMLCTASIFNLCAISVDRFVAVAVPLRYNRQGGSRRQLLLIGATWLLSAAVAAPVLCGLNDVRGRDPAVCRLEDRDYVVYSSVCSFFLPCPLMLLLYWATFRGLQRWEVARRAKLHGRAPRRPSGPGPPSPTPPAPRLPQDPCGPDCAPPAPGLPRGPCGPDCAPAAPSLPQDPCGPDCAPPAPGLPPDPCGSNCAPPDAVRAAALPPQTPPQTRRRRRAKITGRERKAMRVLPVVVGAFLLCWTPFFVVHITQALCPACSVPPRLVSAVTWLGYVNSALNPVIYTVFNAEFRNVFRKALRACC

D(2) dopamine receptor, sequence (P14416 whole entry): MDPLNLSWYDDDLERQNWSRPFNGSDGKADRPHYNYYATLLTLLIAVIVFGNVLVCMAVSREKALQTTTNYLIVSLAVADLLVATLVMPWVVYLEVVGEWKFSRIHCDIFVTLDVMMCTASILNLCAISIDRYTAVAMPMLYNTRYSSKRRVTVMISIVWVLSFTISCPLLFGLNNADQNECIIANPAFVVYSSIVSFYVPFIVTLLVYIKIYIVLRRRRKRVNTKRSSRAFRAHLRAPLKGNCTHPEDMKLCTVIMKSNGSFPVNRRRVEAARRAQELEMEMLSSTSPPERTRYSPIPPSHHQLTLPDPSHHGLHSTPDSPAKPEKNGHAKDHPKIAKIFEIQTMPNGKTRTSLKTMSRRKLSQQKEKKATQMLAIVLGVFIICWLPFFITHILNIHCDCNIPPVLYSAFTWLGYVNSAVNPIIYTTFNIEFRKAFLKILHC
D(3) dopamine receptor, sequence (P35462 whole entry): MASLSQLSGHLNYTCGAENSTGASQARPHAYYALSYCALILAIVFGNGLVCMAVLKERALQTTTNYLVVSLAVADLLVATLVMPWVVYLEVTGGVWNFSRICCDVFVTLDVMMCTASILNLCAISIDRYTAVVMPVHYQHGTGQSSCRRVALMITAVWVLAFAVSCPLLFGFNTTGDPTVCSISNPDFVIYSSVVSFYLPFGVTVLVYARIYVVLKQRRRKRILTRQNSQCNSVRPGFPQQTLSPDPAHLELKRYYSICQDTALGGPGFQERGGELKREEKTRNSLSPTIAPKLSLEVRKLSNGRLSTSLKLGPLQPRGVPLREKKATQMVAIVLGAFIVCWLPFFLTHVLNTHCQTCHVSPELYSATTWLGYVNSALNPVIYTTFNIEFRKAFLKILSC

For O=C(NCCC(CF)N1CCN(c2cccc(Cl)c2Cl)CC1)c1cc2ccccc2o1 (stereo not drawn), the Ki (D(3) dopamine receptor) was 0.56 µM, the Ki (D(2) dopamine receptor) was 7.4 µM and the Ki (D(4) dopamine receptor) was > 3 µM.
